In a melting point compilation (Tetko et al.; mined from patent text by program, amines drawn as free bases though some values may be those of a salt) one finds melting point data, which are given here for 86 compounds.

The structures appear in SMILES notation. Bounds are passed on as bounds.

Take `CCCCC(C)c1cc(O)c2c(c1)OC(C)(C)CC2C1=CCN(Cc2ccc3ccccc3c2)CC1` (stereo unspecified): the melting point fell in the range of 49 to 52 °C.

Take `COc1ccc(-c2ocnc2-c2cc(OC)c(O)c(OC)c2)cc1F`: the melting point fell in the range of 161 to 163 °C.

`O=C(O)c1ccccc1CF`: the melting point was 178 to 181 °C.

`CCCc1c(OCCCOc2ccc(C(=O)O)cc2Br)ccc(C(C)=O)c1O` displayed a melting point of 180 to 182 °C.

As for `CC(C)c1cccc(-n2c(C(=O)Nc3ccc4c(ccn4C)c3)cc3cc(OC(F)(F)F)ccc32)c1`, the melting point lay in the range of 164 to 165 °C.

Take `CCCCCCCC(=O)N(C)Cc1cccc(-c2ccc(Nc3ccccc3C(=O)O)cc2)c1`: the melting point came out at 45 °C.

Compound `CCCc1cc2c(NCCc3ccccc3)ncnc2s1` displayed a melting point of 110 °C.

Turning to `C[Si](C)(C)OC(Cn1ccnc1)(Cn1ccnc1)c1ccc(F)cc1F`, the melting point was 134 to 136 °C.

As to `O=C(Nc1ccc(-n2nc(-c3cncc(Br)c3)cc2OC(F)F)cc1)c1ccncc1F`, the melting point was 179 to 180 °C.

For `C=Cc1cc(C)cc(NC(C)=O)n1`, the melting point amounted to 140 °C.

The compound `COC(=O)c1cc(S(C)(=O)=O)nc(Cl)n1` yielded a melting point of 127 to 129 °C.

For `O=C(O)C1=Cc2cc(Cl)ccc2NC1C(F)(F)F` (stereo unspecified), the melting point fell in the range of 133 to 134 °C.

With `O=C(O)c1cnc2c3ccccc3ccn2c1=O`, the melting point lay within 219 to 231 °C.

As to `Clc1cccc2c(C3CCN(CCCOc4cccc5[nH]ccc45)CC3)c[nH]c12`, the melting point lay in the range of 178 to 182 °C.

The compound `Fc1cccc(Cn2cnnc2S)c1` returned a melting point of 124 to 125 °C.

Compound `NC1=C(NC=O)C(=O)N2CCN=C2N1Cc1ccccc1` registered a melting point of 248 to 250 °C.

On to `FCCn1ncnc1COc1nn2c(-c3ccccc3F)nncc2c1-c1ccccc1F`, for which the melting point is 172 to 173 °C.

For `CCOC(=O)c1ccc(-c2cnc3c(c2)N(Cc2ccccc2OC(F)(F)F)CCN3)cc1`, the melting point is 153 °C.

For the compound `c1cc2nc3c(n2nc1N1CCCC1)CCCC3`, the melting point was 161 °C.

The compound `CC(C)C1c2ccc(F)cc2CCC1(O)CC(=O)O` (stereo unspecified) came in with a melting point of 102 to 104 °C.

Turning to `CCC1(CC)C(=O)N(C(C)(C)CC(C)(C)C)CC(C)(C)N1OC(C)(C)C#N`, the melting point was in the range of 49 to 53 °C.

The compound `CCCCOc1ccc(S(=O)(=O)C2(C(=O)NO)CCN(CCCC)CC2)cc1` gave a melting point of 121 °C.

Compound `CCOC(=O)c1ccc(CCc2cnc3[nH]c(N)nc(N)c2-3)cc1` displayed a melting point of 202 to 204 °C.

`COc1cc2c(cc1Br)C(=CNc1ccc(CN3CCCCC3)cc1)C(=O)NC2=O` gave a melting point of 264 to 267 °C.

`CC(=O)OCCc1ccc(-c2csc(=O)s2)cc1`: the melting point is 55 to 56 °C.

The compound `CC1CCCN(c2nc(-n3cncn3)nc(Cl)c2-c2c(F)cc(F)cc2F)O1` (stereo unspecified) displayed a melting point of 141 to 143 °C.

Consider `CCNC(=NC#N)NCC(=O)N(C)c1ccc(Cl)c(COc2cccn3c(Br)c(C)nc23)c1Cl`, for which the melting point is more than 250 °C.

For the compound `C=CCc1ccc(CCNC(=O)c2cc(Cl)ccc2OC)cc1S(=O)(=O)NC(=O)NC`, the melting point was in the range of 124 to 126 °C.

`OCc1ccc(OCc2ccccc2)c2ncccc12` came in with a melting point of 192 to 194 °C.

`OC(CCCN1CC=C(c2ccccc2)CC1)c1ccc(Cc2ccc(Cl)cc2)cc1` (stereo unspecified) came in with a melting point of 108 to 111 °C.

For the compound `Cn1nc(C(F)(F)F)c(C(=O)O)c1N`, the melting point lay within 216 to 218 °C.

For the compound `CCc1c(C(=O)c2cc(Cl)cc(Cl)c2)[nH]c(=O)[nH]c1=O`, the melting point fell in the range of 242 to 243 °C.

Regarding `C=CC(=O)Nc1csc(Br)n1`, the melting point was 152 to 154 °C.

With `Nc1ccccc1C(=O)N1CCCc2ccccc21`, the melting point turned out to be 102 °C.

In turn, `O=C1Nc2ccccc2C(c2ccccc2F)=NC1Cc1cccs1` (racemic) yielded a melting point of 189 to 191 °C.

`O=C(O)CCC(=O)N[C@@H]1CN2C(=O)N(c3cc(Cl)nc(Cl)c3)C(=O)[C@@]2(Cc2ccc(OC(F)(F)F)cc2)C1` gave a melting point of 102 °C.

On to `CCOP(=O)(/C=C/c1ccc2cc(NC(=O)C(NC(=O)OC(C)(C)C)C(C)(C)C)cc(-c3cccc4ccccc34)c2n1)OCC` (stereo unspecified), for which the melting point was 249 to 250 °C.

Compound `Cc1cc(C)n(-c2nc(Nc3ccccn3)c3ccccc3n2)n1` gave a melting point of 126 to 127 °C.

With `Cn1c(C(F)(F)F)cc(=O)n(-c2ccc3snc(C4OCCO4)c3c2)c1=O`, the melting point was in the range of 213 to 216 °C.

For `COc1ccc(C(C#Cc2ccccc2)CC(=O)O)cc1OC1CCCC1` (racemic), the melting point is 86 to 88 °C.

`CCCCCc1c(-c2ccc3cc(OCc4nnn[nH]4)ccc3c2)n(C)c2ccccc12` registered a melting point of 120 to 122 °C.

`COC(=O)Cc1sc(=O)[nH]c1COc1ccccc1`: the melting point amounted to 103 °C.

In turn, `CCOC(=O)c1cnc2c(c(C)nn2CC)c1Cl` displayed a melting point of 70 to 74 °C.

Take `CCC(C)(C)c1cc(C(=O)COc2ccc(C=O)cc2OC)cc(C(C)(C)CC)c1O`: the melting point lay in the range of 106 to 107 °C.

`O=C(NCCSc1ccncc1)c1ccccc1CO` came in with a melting point of 132 to 133 °C.

The compound `CC(C)Oc1cc(NC(=O)CC(CCCl)C(F)(F)F)c(F)cc1Cl` (stereo unspecified) returned a melting point of 57 to 63 °C.

The compound `CCCC(C(=O)O)C1(c2ccccc2)CC(O)=C(Sc2ccccc2C(C)C)C(=O)O1` (stereo unspecified) came in with a melting point of 145 to 146 °C.

Regarding `Clc1ncc(-c2ccccc2)cn1`, the melting point lay within 130 to 132 °C.

Consider `CCOC(=O)c1sc(SC)c2c1CCc1sc(-c3ccccc3)nc1-2`, for which the melting point fell in the range of 153 to 154 °C.

Consider `Fc1ccc2c(c1)C(=C1CCNCC1)c1ccccc1C=C2`, for which the melting point is 161 °C.

On to `CC(=O)C1CCC2C3CCC4CC(O)(c5ccccc5)CCC4(C)C3CCC12C` (stereo unspecified), for which the melting point fell in the range of 182 to 184 °C.

`Cc1onc(-c2ccccc2)c1C(=O)NCCCN1CCN(c2ccccc2OCC(F)(F)F)CC1` displayed a melting point of 124 to 125 °C.

Compound `CN=C(NC#N)NCCSCc1[nH]cnc1Br` showed a melting point of 144 to 146 °C.

In turn, `CC(C(=O)O)c1ccc(CC2CCCCC2=O)cc1` (stereo unspecified) showed a melting point of 84 to 86 °C.

Compound `O=C(O)c1ccc(Cn2ccc3cc(OCc4ccc5ccccc5n4)ccc32)cc1` yielded a melting point of 212 to 216 °C.

In turn, `O=Cc1cc(O)cc2cc(-c3ccc(O)cc3)oc12` yielded a melting point of 261 to 263 °C.

The compound `CCOC(=O)NC(=O)CN(C)C(=O)c1c(F)ccc2c(C(F)(F)F)c(OC)ccc12` came in with a melting point of 130 to 132 °C.

As for `FC(F)(F)c1ccccc1-c1nc(-c2ccccc2Cl)nn1CCCl`, the melting point was 66 to 68 °C.

The compound `CC1=C(C(=O)OC(C)C)C(c2cccc([N+](=O)[O-])c2)N(C(=O)Oc2ccc([N+](=O)[O-])cc2)C(=O)N1` (stereo unspecified) had a melting point of 138 to 140 °C.

`CC(=O)c1c(C)c(NC(=O)CC(C)(C)C)c(C)c2c1SCC2c1ccc(C(C)C)cc1` (stereo unspecified) gave a melting point of 218 to 219 °C.

The compound `C=Cc1cccc(-c2nc(CCOc3ccc(OC(C)(C)C(=O)O)cc3)c(C)o2)c1` came in with a melting point of 137 to 139 °C.

For `Cc1ccnc(NC(=O)c2c(-c3ccc(F)cc3)c(-c3ccc(F)cc3)cn2C(C)C)n1`, the melting point lay within 165 to 166 °C.

In turn, `COc1ccc([C@@H]2Sc3ccccc3N(CCN(C)C)C(=O)[C@@H]2OC(=O)Nc2ccccc2)cc1` (relative stereo) displayed a melting point of 106 to 108 °C.

`CN1CCCN(c2cc3ccccc3c(=O)[nH]2)CC1`: the melting point is 171 to 172 °C.

Compound `CCCCCS(=O)(=O)NC(=O)/C=C/c1ccc(OCCO[Si](c2ccccc2)(c2ccccc2)C(C)(C)C)cc1Oc1ncc(C(F)(F)F)cc1Cl` had a melting point of 108 °C.

In the case of `C(=C(c1ccccc1)c1ccccc1)c1ccccn1`, the melting point is 117 to 119 °C.

In turn, `COc1ccc(C(=O)Nc2ccc(F)c(F)c2)cc1NS(=O)(=O)c1cccc(N)c1` gave a melting point of 212 to 214 °C.

`CCn1nccc1C(=O)Nc1cc(Oc2ccc3nc(NC(=O)C4CC4)cn3n2)ccc1F` gave a melting point of 209 °C.

`O=C(O)c1ccn2c1C(C(=O)O)CCC2` (stereo unspecified) returned a melting point of 236 to 237 °C.

As for `COCCCCCC=C(NC(=O)C1CC1(C)C)C(=O)O` (stereo unspecified), the melting point is 71 to 72 °C.

In the case of `Cc1cc2c(cc1S(=O)(=O)c1cc(Cl)cc(Cl)c1)OC(C(=O)O)O2` (stereo unspecified), the melting point lay in the range of 210 to 214 °C.

The compound `FC(F)(F)Sc1ccc(C=Cc2nc(CNc3ccc(CCCCn4ccnn4)cc3)co2)cc1` gave a melting point of 76 to 78 °C.

`Fc1ccc(C2(Cl)CN(C(c3ccccc3)c3ccccc3)C2)cc1` gave a melting point of 108 to 109 °C.

`O=C1CCC(N2C(=O)c3cccc(NC(=O)Cc4ccccc4)c3C2=O)C(=O)N1` (stereo unspecified): the melting point lay within 217 to 218 °C.

With `CCn1c(C)c(C2(c3c(-c4ccccc4)[nH]c4ccccc34)OC(=O)C(Cl)=C2Cl)c2ccccc21` (stereo unspecified), the melting point turned out to be 225 °C.

Regarding `N[C@@H](CCCCNC(=O)NCc1ccccc1)C(=O)N1CC(F)(F)C(F)(F)C1`, the melting point fell in the range of 89 to 92 °C.

For the compound `Cc1cc(OCC(=O)O)c(C(C)C)cc1SCc1sc(-c2ccc(C(F)(F)F)cc2)nc1C`, the melting point is 168 to 171 °C.

In the case of `Cc1c(-c2ccccc2)oc2c(OCC3CO3)cccc2c1=O` (stereo unspecified), the melting point was 128 to 129 °C.

`CC(C)(C)OC(=O)N1CCC(C#N)(c2cccc(C(F)(F)F)c2)CC1` registered a melting point of 72 to 73 °C.

In the case of `O=C(Nc1n[nH]c(=S)s1)NC(Cc1ccccc1)C(=O)NCCN1CCOCC1` (stereo unspecified), the melting point is 165 to 167 °C.

Turning to `FC(F)(F)C1(c2cc(Cl)cc(Cl)c2)CC(c2ccc(-n3cccn3)cc2)=NO1` (stereo unspecified), the melting point lay in the range of 174 to 175 °C.

`O=C1Cc2c(cc(Br)c3ccccc23)C(c2ccccc2F)N1` (stereo unspecified): the melting point lay within 257 to 260 °C.

With `CSc1c(Cl)c(-c2cc(SC(C)C(=O)O)c(Cl)cc2Cl)nn1C` (stereo unspecified), the melting point came out at 180 °C.

For `CCCCCN(C[C@H]1CC[C@H](CN(CCCCC)C(=O)Nc2ccc(N(C)C)cc2)CC1)C(=O)Nc1ccc(N(C)C)cc1`, the melting point lay in the range of 205 to 208 °C.

For the compound `Cc1cc(Cl)nnc1-c1ccc(C#N)cc1`, the melting point was in the range of 218 to 220 °C.

Compound `Cc1cc([N+](=O)[O-])c2c(c1SC(=O)N(C)C)CCC2` returned a melting point of 180 °C.

Usually melting point stands for the temperature, or range, at which the solid turns liquid.
